Measured values as given in patent US20060235062A1, “Novel heterocyclic analogs of diphenylethylene compounds” (THERACOS, INC., priority 2002, published 2006).

How the values were obtained:
ob/ob mice [1] = experiment: Antihyperglycemic activity and serum parameters in ob/ob mice; type: in vivo; design: decrease in triglyceride as compared to the control / lowering of FFA compared to the control / decrease in the GHb level compared to the control / reduction of serum insulin / reduction of triglycerides / reduction of free fatty acid (FFA) levels: concentration or dose not given beside the values
ZDF rats = experiment: Antihyperglycemic activity in Zucker diabetic fatty rats; type: in vivo
ob/ob mice [2] = experiment: Liver enzymes AST/GOT and ALT/GPT in sera of ob/ob mice; type: in vivo; conditions: 21 days, orally 50 mg/kg, vs untreated or troglitazone-treated mice
3T3-L1 adipocytes = experiment: Glucose uptake in differentiated 3T3-L1 adipocytes; type: cell-based
Method: Referring to FIG. 8 glucose uptake in 3T3-L1 differentiated adipocytes was measured after treatment with the test compound. The assay was conducted according to the method of Tafuri, Endocrinology, 137, 4706-4712 (1996). The serum-starved cells were treated with the test compound for 48 hours at different concentrations, then washed and incubated in glucose-free media for 30 minutes at 37° C. Then ^14C-deoxyglucose was added and uptake was monitored for 30 minutes under incubation. After washing, the cells were lysed (0.1% SIDS) and counted.
Basal glucose uptake was measured in differentiated 3T3-L1 adipocytes following the protocol of Tafuri (6) with modifications. Briefly, 3T3-L1 fibroblasts, obtained from ATCC (Manassas, Va.), were differentiated to adipocytes by treating cells with porcine insulin (1 μg/ml for 4 days), dexamethasone (0.25 μM for first 2 days) and isobutyl methyl xanthine (IBMX, 0.5 mM for first 2 days) (all from Sigma Chemicals, St Louis, Mo.) following the protocol of Frost and Lane (7). Differentiated adipocytes were incubated in Dulbecco's Modified Eagle Medium (DMEM) containing 10% fetal bovine serum (GibcoBRL, Gaithersburg, Md.) with various concentrations of Compound 11 or vehicle (0.1% DMSO) for 48 h in 24-well plates, in triplicate. Cells were washed with phosphate buffered saline (PBS, 150 mM NaCl, 1 mM KH2PO4, 3 mM Na2HPO4; pH 7.4) and incubated in glucose-free DMEM for 2 h at 37° C. The cells were washed 3 times with Krebs Ringer Phosphate Buffer (KRP). Glucose uptake was initiated by addition of 0.25 μCi 2-^14C(U)-deoxy-D-glucose (300 μCi/mmol, American Radiolabeled Chemicals Inc., St Louis, Mo.) per well and the cells incubated for 10 min at room temperature in the presence of 0.1 mmol cold 2-deoxy-D-glucose. Finally, the cells were washed three times with ice-cold PBS containing 10 mM cold glucose, lysed with 0.5% SDS, and counted in a scintillation counter (Beckman LS6500).

IL-6 = experiment: LPS-induced IL-6 production in RAW cells (ELISA); type: cell-based; conditions: RAW cells, 0.1, 1, 10, 50 or 100 pM, FIG. 10
COX-1 = target: T1, COX-1 (Mus musculus, UniProt P22437); experiment: COX-1 activity in RAW cells; type: cell-based; conditions: 0.1-100 μM
T1 construct: aliquots used to determine COX-2 and COX-1 activity; endogenous in cells; host or cells: RAW (RAW 264.7) cells
T1 sequence (P22437 27-602): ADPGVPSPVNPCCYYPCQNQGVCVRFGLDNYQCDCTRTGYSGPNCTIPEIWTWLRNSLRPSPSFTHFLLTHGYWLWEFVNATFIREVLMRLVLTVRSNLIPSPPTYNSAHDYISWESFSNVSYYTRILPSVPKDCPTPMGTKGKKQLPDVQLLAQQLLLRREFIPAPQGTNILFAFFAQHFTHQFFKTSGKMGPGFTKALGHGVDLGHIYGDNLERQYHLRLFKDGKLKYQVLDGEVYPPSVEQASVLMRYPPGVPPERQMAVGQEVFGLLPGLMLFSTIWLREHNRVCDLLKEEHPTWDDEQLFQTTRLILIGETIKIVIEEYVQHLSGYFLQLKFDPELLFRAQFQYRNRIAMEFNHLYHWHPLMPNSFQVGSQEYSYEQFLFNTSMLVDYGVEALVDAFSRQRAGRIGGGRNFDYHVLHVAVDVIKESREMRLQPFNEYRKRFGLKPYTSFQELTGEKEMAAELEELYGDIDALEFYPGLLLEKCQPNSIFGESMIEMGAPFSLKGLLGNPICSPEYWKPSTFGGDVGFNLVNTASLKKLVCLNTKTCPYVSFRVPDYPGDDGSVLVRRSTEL
Method: After 1 hour LPS (0.1 pg/mL) was added and cells were incubated an additional 6 hours. Cell supernatant was then collected, aliquoted and frozen at −70° C., and aliquots used to determine COX-2 and COX-1 activity. Compound 11, but not rosiglitazone, inhibited the activity of COX-2 (as measured by PGE2 production in a 50 μl sample).

NF-kB p65 = NF-kB p65 activation in LPS-stimulated RAW cells (ELISA); type: cell-based; conditions: 10 μM, 1 μg/ml LPS 15 min, FIG. 15
DBA/1 Lac mice = experiment: Collagen-induced arthritis in mice; type: in vivo; conditions: 50 mg/kg orally daily for 17 days
HepG2 cells = experiment: Glycogen synthesis in HepG2 cells; type: cell-based; conditions: HepG2, absence of insulin
3T3-L1 fibroblasts = experiment: Adipogenesis (triglyceride accumulation) in 3T3-L1 fibroblasts
Method: After two days of growth in 6-well plates, cells were treated either with vehicle (0.1% DMSO) or with compounds for ten days. Fresh medium with compounds or vehicle was replenished every 48 h. Cells were washed with PBS twice and fixed in 10% formalin (Sigma) in PBS. After washing in PBS, cells were stained with freshly diluted Oil Red O in isopropanol for 1 h at room temperature. The cells were washed five times with PBS and visualized under an Olympus BH2 microscope. Quantitative accumulation of triglyceride was also measured under similar experimental conditions, except in this case cells were plated in 100-mm tissue culture dishes. Triglyceride was extracted with methanol:chloroform (2:1) mixture. […] Extracted triglyceride was measured by a colorimetric assay (GPO-Trinder, Sigma) according to manufacturer instructions.
After 14 days cells were stained with Oil Red O, counterstained with methylene blue for visual assessment (FIG. 23B) and assayed for triglyceride accumulation.

[3] = after fourteen days of treatment, p<0.05 vs vehicle
[4] = ob/ob mice, 50 mg/kg, 14 days, FIG. 17A

For `COC(=O)C(=Cc1cc(OC)cc(OC)c1)c1ccc(Oc2ccc(CC3SC(=O)NC3=O)cc2)cc1` (stereo not drawn) [Compound 11, 3-(3,5-Dimethoxyphenyl)-2-{4-[4-(2,4-dioxothiazolidin-5-ylmethyl)-phenoxy]-phenyl}-acrylic acid methyl ester], which “reduction of free fatty acid (FFA) levels” value (ob/ob mice [1]; [3]) is on record?
Its value is 33%.

What about the “reduction of serum insulin” value (ob/ob mice [1]; [3]) of the same molecule?
The value was 58%.

What about the reduction of triglycerides (ob/ob mice [1]; [3]) of the same molecule?
Its reduction of triglycerides is 65%.

What about the “glycosylated hemoglobin after treatment” value (ob/ob mice [1]; after fourteen days of treatment, reduced from 5.2%, p=0.15, FIG. 18) of the same molecule?
The value was 3.8%.

And the “dose response of glucose lowering” value (ob/ob mice [1]; ob/ob mice (n=8), three different doses, FIG. 19)?
The value was “dose dependent glucose lowering effect”.

And the “weight gain in treated and control animals” value (ob/ob mice [1]; ob/ob mice, 50 mg/kg oral once daily, 8 to 9 days)?
Its value is “similar”.

And the “decrease in blood glucose levels” value (ob/ob mice [1]; ob/ob mice, 50 mg/kg oral once daily, 8 to 9 days, FIG. 21)?
Its value is 59 % vs. baseline.

And the “normalization of blood glucose levels” value (ob/ob mice [1]; [4])?
The value was “normalized by three days”.

And the “time to significant decrease of blood glucose levels” value (ob/ob mice [1]; [4])?
Its value is ≤ 48 h.

And the “body weight compared to vehicle treated group” value (ob/ob mice [1]; ob/ob mice, 50 mg/kg, 14 days, FIG. 17B)?
The value was “did not see any increase”.

And the “drop of serum insulin” value (ob/ob mice [1]; ob/ob mice, after 10 days of treatment, FIG. 6A)?
Its value is 58%.

What about the “lowering of FFA compared to the control” value (ob/ob mice [1]; ob/ob mice, after 10 days of treatment, FIG. 6C) of the same molecule?
The value was 33%.

What about the “decrease in the GHb level compared to the control” value (ob/ob mice [1]; ob/ob mice, after 14 days of treatment, FIG. 6D) of the same molecule?
The value was 1.3%.

And the “decrease in triglyceride as compared to the control” value (ob/ob mice [1]; ob/ob mice, after treatment for 10 days, FIG. 6B)?
Its value is 65%.

What about the “drop in blood glucose level” value (ob/ob mice [1]; ob/ob mice, oral 50 mg/kg, 15 days, FIG. 2A) of the same molecule?
The value was 62%.

What about the “body weight, control vs treatment group” value (ob/ob mice [1]; ob/ob mice, oral 50 mg/kg, FIG. 2B) of the same molecule?
Its value is “no significant increase”.

What about the “in vivo potency relative to rosiglitazone on a mole-per-mole basis (more potent)” value (ob/ob mice [1]; ob/ob mice, same glucose lowering at 10 mg/kg) of the same molecule?
The value was 46%.

What about the glucose levels (ZDF rats) of the same molecule?
The glucose levels was “normalizes glucose levels”.

What about the “more weight gained than control animals” value (ZDF rats; 50 mg/kg oral once daily, 8 to 9 days) of the same molecule?
The value was 13%.

What about the “decrease in blood glucose levels” value (ZDF rats; 50 mg/kg oral once daily, 8 to 9 days, FIG. 21) of the same molecule?
The value was 50 % vs baseline.

And the AST level (ob/ob mice [2]; FIG. 7A)?
The AST level was “not elevated”.

And the ALT level (ob/ob mice [2]; FIG. 7B)?
Its ALT level is “did not elevate”.

And the “glucose uptake activity in words” value (3T3-L1 adipocytes; 0.1 μM)?
The value was “retained activity, but less than that of rosiglitazone”.

What about the “glucose uptake activity in words” value (3T3-L1 adipocytes; 1 μM) of the same molecule?
The value was “comparable to rosiglitazone”.

And the “effect on insulin-stimulated glucose uptake” value (3T3-L1 adipocytes; 5 μM with increasing insulin, FIG. 20B)?
Its value is “additive, not synergistic”.

What about the “maximum glucose uptake over basal levels” value (3T3-L1 adipocytes; 0.01-10 μM, 48 h, mean±SE, FIG. 20A) of the same molecule?
Its value is 1.33±0.02 fold.

What about the “% Glucose uptake 0.1 μm” value (3T3-L1 adipocytes; 0.1 μm, average of quadruplicate ± SD) of the same molecule?
Its value is 161.6 ± 11.4 % basal of the non treated cells.

What about the “% Glucose uptake 1.0 μm” value (3T3-L1 adipocytes; 1.0 μm, average of quadruplicate ± SD) of the same molecule?
The value was 218.1 ± 10.0 % basal of the non treated cells.

What about the “inhibition of LPS-induced IL-6 production” value (IL-6) of the same molecule?
Its value is “better inhibitor of IL-6 than rosiglitazone”.

What about the “inhibition of COX-1 activity” value (COX-1) of the same molecule?
The value was “Neither compound inhibited”.

And the “inhibition of the activation of NF-kB (p65)” value (NF-kB p65)?
The value was “inhibited”.

And the “body weight vs vehicle group” value (DBA/1 Lac mice; FIG. 13A)?
The value was “no change”.

And the “clinical scores vs vehicle treated group” value (DBA/1 Lac mice; FIG. 13B)?
The value was “significantly lower”.

And the “joints affected vs vehicle treated group” value (DBA/1 Lac mice; FIG. 13C)?
Its value is “significantly lower”.

What about the “paw thickness vs vehicle treated group” value (DBA/1 Lac mice; FIG. 13D) of the same molecule?
Its value is “significantly lower”.

And the “14C-glucose incorporated into glycogen, dose response” value (HepG2 cells; FIG. 25A)?
The value was “dose-dependent increase”.

And the “maximal increase in glycogen synthesis over baseline” value (HepG2 cells; at 48 to 72 h, FIG. 25B)?
Its value is 3.1 fold.

What about the “maximal triglyceride accumulated, increase over control” value (3T3-L1 fibroblasts; 3T3-L1 fibroblasts, 0.1, 1, 10 μM, no dexamethasone, insulin, IBMX, FIG. 23A) of the same molecule?
The value was 3.96 fold.

What about the cytotoxic concentrations (3T3-L1 fibroblasts; 3T3-L1 system, data not shown) of the same molecule?
Its cytotoxic concentrations is ≥ 100 µM.
